Source: PMC4643906, “Interaction of the N-(3-Methylpyridin-2-yl)amide Derivatives of Flurbiprofen and Ibuprofen with FAAH: Enantiomeric Selectivity and Binding Mode” (PLoS ONE, 2015)
Where a chain is given by its changes, count along the chain named. Where two headings read alike, the source gives them in different places.

Legend:
rat brain FAAH = biological target: T1, rat brain FAAH (Rattus norvegicus, UniProt P97612); test: Inhibition of [3H]AEA hydrolysis in rat brain homogenates; assay type: biochemical; conditions: for remaining activity at 0.7 µM: 0.7 μM inhibitor; for mode of inhibition (best-fit model) / α / Ki: 0.5–4 μM [3H]AEA; for mode of inhibition (best-fit model): compared with pure competitive model; for interaction with carprofen in multiple inhibition experiments: Dixon plots, together with carprofen
T1 construct: from tissue; host or cells: rat brain (minus cerebellum), washed membrane pellet
T1 sequence (P97612 1-579): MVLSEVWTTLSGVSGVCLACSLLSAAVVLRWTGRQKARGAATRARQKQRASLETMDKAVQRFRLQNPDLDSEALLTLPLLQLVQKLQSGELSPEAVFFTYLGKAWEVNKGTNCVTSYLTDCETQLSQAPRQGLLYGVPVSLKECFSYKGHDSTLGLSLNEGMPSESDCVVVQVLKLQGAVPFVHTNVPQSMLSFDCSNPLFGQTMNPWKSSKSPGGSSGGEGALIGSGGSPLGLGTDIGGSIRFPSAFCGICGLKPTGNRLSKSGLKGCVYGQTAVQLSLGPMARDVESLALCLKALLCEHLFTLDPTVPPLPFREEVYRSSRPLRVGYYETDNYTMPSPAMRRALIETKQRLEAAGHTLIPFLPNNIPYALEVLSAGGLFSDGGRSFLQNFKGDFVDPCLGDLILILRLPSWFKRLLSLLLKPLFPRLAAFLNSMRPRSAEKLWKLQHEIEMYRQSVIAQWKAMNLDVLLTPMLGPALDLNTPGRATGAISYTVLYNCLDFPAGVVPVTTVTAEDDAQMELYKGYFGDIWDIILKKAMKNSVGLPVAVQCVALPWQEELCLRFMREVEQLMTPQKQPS
Description: (§1) Brains (minus cerebella) from adult Wistar or Sprague-Dawley rats (killed by decapitation) and from male B6CBAF1/J mice (killed by cervical dislocation), stored at -80°C, were thawed, weighed and homogenized in cold buffer (20 mM HEPES, 1 mM MgCl2 pH 7.0). Homogenates were centrifuged (35,000 g at 4°C for 20 min) before the pellet was resuspended in cold homogenization buffer. Centrifugation and resuspension was repeated twice. The suspension was incubated at 37°C for 15 min to degrade any endogenous substrate able to interfere with the FAAH assay. After centrifugation (35,000 g at 4°C for 20 min), the pellet was resuspended in cold buffer (50 mM Tris-HCl, 1mM EDTA, 3 mM MgCl2, pH 7.4). The protein concentration was determined according to [27] after which the samples were frozen in aliquots at -80°C.
(§2) The assays were performed according to [28] with minor modifications. Briefly, homogenates or cell lysates in assay buffer (10 mM Tris-HCl, 1mM EDTA, pH 7.4) were mixed with substance dissolved in ethanol on ice. Hydrolysis reactions were initiated by addition of substrate ([^3H]AEA in 10 mM Tris-HCl, 1mM EDTA, pH 7.4 containing 10 mg ml^-1 fatty acid-free bovine serum, assay concentration 0.5 μM unless otherwise stated) and incubation at 37°C. For the brain homogenates, hydrolysis at 37°C was allowed to proceed for 10 min (assay volume was 200 μL, with 1 and 0.3 μg/assay protein concentrations of the rat and mouse homogenates, respectively). For the kinetic experiments, the AEA: fatty acid-free bovine serum albumin ratio was kept constant at 1: ~4.5 (μM). Following incubation, reactions were stopped by addition of 400 μL activated charcoal (80 μL activated charcoal + 320 μL 0.5 M HCl) and placement of samples on ice before centrifugation at 2500 rpm for 10 min. Aliquots (200 μL) of the supernatant were analyzed for tritium content by liquid scintillation spectroscopy with quench correction. Sample sizes were chosen on the basis of previous data investigating FAAH inhibitory properties of compounds.
(§3) pI50 and IC50 values were calculated using log(inhibitor) vs. response with variable slope (four parameters) algorithm in the GraphPad Prism computer program (GraphPad Software Inc., San Diego, CA. USA). […] The best fit was chosen by Akaike’s informative criteria. Ki and α values were obtained using the enzyme kinetics mixed model inhibition curve fitting algorithm available in the GraphPad Prism programme. This models the observed velocity v^app at a given substrate concentration where v^app = Vmax ^app/(1 + Km ^app/[S]), Vmax ^app = Vmax/(1+[I]/(αKi)) and Km ^app = Km(1+[I]/Ki)/(1+[I]/(αKi)) (http://www.graphpad.com/guides/prism/6/curve-fitting/index.htm?reg_mixered_model.htm, URL checked 16 October 2015). The model assuming competitive interactions (where α→∞) was also used, and the best fit was chosen by Akaike’s informative criteria. Robust linear regressions for the Dixon plots, which are less sensitive to outliers than the standard least-squares methodology were undertaken using the same computer programme.

[1] = biological target: T2, rat wild-type FAAH (FAAH^wt) (Rattus norvegicus, UniProt P97612); test: Inhibition of [3H]AEA hydrolysis in lysates of HeLa cells expressing wild-type FAAH; assay type: biochemical
T2 construct: expressed in transfected cells; host or cells: HeLa cells, pcDNA4 plasmid, lysate
T2 sequence (P97612 1-579): T1 sequence (P97612 1-579)

FAAH^T488A = biological target: T3, FAAH^T488A (Rattus norvegicus, UniProt P97612, T488A); test: Inhibition of [3H]AEA hydrolysis in lysates of HeLa cells expressing FAAH^T488A; assay type: biochemical; conditions: FAAH^T488A lysate 0.4 μg/assay, 18 h, 0.5 μM [3H]AEA
T3 construct: expressed in transfected cells; host or cells: HeLa cells, pcDNA4 plasmid, lysate
T3 sequence (P97612 1-579 T488A): T1 sequence (P97612 1-579) with T488A

mouse brain FAAH [2] = biological target: T4, mouse brain FAAH (Mus musculus, UniProt O08914); test: Inhibition of [3H]AEA hydrolysis in mouse brain homogenates; assay type: biochemical; conditions: 0.5 μM [3H]AEA
T4 construct: from tissue; host or cells: mouse brain (minus cerebellum), washed membrane pellet
T4 sequence (O08914 1-579): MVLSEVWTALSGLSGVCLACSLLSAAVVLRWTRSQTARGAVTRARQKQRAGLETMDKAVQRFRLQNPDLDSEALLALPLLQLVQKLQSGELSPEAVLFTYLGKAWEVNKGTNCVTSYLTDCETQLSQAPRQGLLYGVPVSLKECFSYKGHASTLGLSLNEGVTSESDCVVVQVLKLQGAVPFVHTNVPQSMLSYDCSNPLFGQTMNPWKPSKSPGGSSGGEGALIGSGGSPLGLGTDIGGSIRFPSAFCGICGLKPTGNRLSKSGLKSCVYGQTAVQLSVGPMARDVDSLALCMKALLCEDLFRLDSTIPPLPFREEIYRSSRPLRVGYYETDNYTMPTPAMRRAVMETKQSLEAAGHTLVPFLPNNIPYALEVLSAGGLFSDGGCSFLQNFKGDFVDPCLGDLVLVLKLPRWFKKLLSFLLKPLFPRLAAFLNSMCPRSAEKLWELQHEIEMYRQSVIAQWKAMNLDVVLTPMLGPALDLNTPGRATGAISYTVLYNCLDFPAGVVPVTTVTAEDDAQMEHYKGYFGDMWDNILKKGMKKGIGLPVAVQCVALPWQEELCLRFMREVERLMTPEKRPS
Description: as §1, §2, §3

mouse brain FAAH [3] = biological target: T4, mouse brain FAAH; parameters: method as in PMID 26406890; conditions: cited from earlier work; for IC50 / pI50: mouse brain homogenates
[4] = rat brain homogenates, 0.5 μM [3H]AEA, read-out: IC50
[5] = rat brain homogenates, 0.5 μM [3H]AEA, read-out: pI50 (converted)
[6] = FAAH^wt + empty vector (0.36 μg/assay) lysates, 18 h, 0.5 μM [3H]AEA
[7] = FAAH^wt lysate 0.04 μg/assay, 18 h, 0.5 μM [3H]AEA
[8] = preliminary experiments, another batch of wild-type FAAH, 1.5–2 μg/assay, 20 min at 37°C, read-out: potencies
[9] = linear mixed inhibition model fit
[10] = linear mixed inhibition model fit, read-out: Ki
[11] = median of Dixon plot intersections, read-out: Ki (Dixon plot)
[12] = rat brain homogenates, 0.5 μM [3H]AEA

SMILES	IC50 (rat brain FAAH; [4]) [µM]	IC50 (rat brain FAAH; [5]) [µM]	IC50 [1, 8] [µM]	α (rat brain FAAH; [9])	Ki (rat brain FAAH; [10]) [µM]	Ki (rat brain FAAH; [11]) [µM]	nH (Hill slope) (rat brain FAAH; [12])	nH (Hill slope) (mouse brain FAAH [2])	also measured
Cc1cccnc1NC(=O)C(C)c1ccc(CC(C)C)cc1 (racemic) [racemic Ibu-AM5, 2-(4-Isobutylphenyl)-N-(3-methylpyridin-2-yl)propanamide]	1.2	1.2	–	–	–	–	–	–	–
Cc1cccnc1NC(=O)[C@H](C)c1ccc(CC(C)C)cc1 [(R)-Ibu-AM5, 2-(4-Isobutylphenyl)-N-(3-methylpyridin-2-yl)propanamide]	5.7	5.62	8.8	3.1±1.1	10 ± 2.5	9.8	1.05±0.10	1.50±0.36	fold less potent an inhibitor of FAAH than the (S)-enantiomer (rat brain FAAH; rat FAAH): 10 fold; inhibition (rat brain FAAH; rat brain homogenates, 0.5 μM [3H]AEA, read-out: maximum inhibition (best fit)): 92%; IC50 (mouse brain FAAH [2]; read-out: IC50): 53 µM
Cc1cccnc1NC(=O)[C@@H](C)c1ccc(-c2ccccc2)c(F)c1 [(S)-Flu-AM1]	0.99	1	2.4	5.6±3.6	0.79 ± 0.28	0.86	0.94±0.04	1.31±0.16	mode of inhibition (best-fit model) (rat brain FAAH): linear mixed inhibition; IC50 (mouse brain FAAH [3]): 11 µM; pI50 (mouse brain FAAH [3]): 4.96±0.04
CC(C(=O)O)c1ccc2c(c1)[nH]c1ccc(Cl)cc12 (stereo not shown) [Carprofen, reference compound]	–	–	–	–	–	–	1.66±0.13	–	nH [1, 6]: 4.28±0.41; nH [1, 7]: 3.00±0.31; maximum inhibition (best fit) ([1]; wild-type FAAH lysates, 18 h): 82–91%; nH (FAAH^T488A): 2.43±0.37
Cc1cccnc1NC(=O)Cc1ccc(CC(C)C)cc1 [Ibufenac-AM1, 2-(4-Isobutylphenyl)-N-(3-methylpyridin-2-yl)acetamide]	68	67.6	–	–	–	–	–	–	–

Continued by falling IC50 (rat brain FAAH; [4]), values first:

IC50 (rat brain FAAH; [4]) [µM]	IC50 (rat brain FAAH; [5]) [µM]	IC50 [1, 8] [µM]	α (rat brain FAAH; [9])	Ki (rat brain FAAH; [10]) [µM]	Ki (rat brain FAAH; [11]) [µM]	nH (Hill slope) (rat brain FAAH; [12])	nH (Hill slope) (mouse brain FAAH [2])	SMILES	also measured
0.74	0.741	1.6	3.2±1.3	0.63 ± 0.17	0.28	0.90±0.04	0.78±0.09	Cc1cccnc1NC(=O)[C@H](C)c1ccc(-c2ccccc2)c(F)c1 [(R)-Flu-AM1, (R)-2-(2-fluorobiphenyl-4-yl)-N-(3-methylpyridin-2-yl)propanamide]	nH [1, 6]: 0.99±0.06; IC50 ([1]; FAAH^wt + empty vector (0.36 μg/assay) lysates, 18 h, 0.5 μM [3H]AEA, read-out: IC50): 8 µM; IC50 ([1]; FAAH^wt + empty vector (0.36 μg/assay) lysates, 18 h, 0.5 μM [3H]AEA, read-out: pI50 (converted)): 7.94 µM; nH [1, 7]: 1.02±0.07; IC50 ([1]; FAAH^wt lysate 0.04 μg/assay, 18 h, 0.5 μM [3H]AEA, read-out: IC50): 8.3 µM; IC50 ([1]; FAAH^wt lysate 0.04 μg/assay, 18 h, 0.5 μM [3H]AEA, read-out: pI50 (converted)): 8.32 µM; remaining activity at 0.7 µM (rat brain FAAH; preincubation 0 min at 37°C): 50 ± 1%; remaining activity at 0.7 µM (rat brain FAAH; preincubation 60 min at 37°C): 39 ± 4%; mode of inhibition (best-fit model) (rat brain FAAH): linear mixed inhibition; reversibility of inhibition (rat brain FAAH; 20-fold dilution after 60 min of preincubation): completely reversible; interaction with carprofen in multiple inhibition experiments (rat brain FAAH; 0.5 μM [3H]AEA): mutually exclusive manner; nH (FAAH^T488A): 1.47±0.37; IC50 (FAAH^T488A; read-out: IC50): 28 µM; IC50 (FAAH^T488A; read-out: pI50 (converted)): 28.2 µM; mode of inhibition (mouse brain FAAH [3]; mouse brain FAAH): competitive; IC50 (mouse brain FAAH [3]): 8.8 µM; pI50 (mouse brain FAAH [3]): 5.05±0.06
0.59	0.589	0.53	3.2±1.5	0.8 ± 0.21	0.89	0.81±0.08	1.33±0.38	Cc1cccnc1NC(=O)[C@@H](C)c1ccc(CC(C)C)cc1 [(S)-Ibu-AM5, 2-(4-Isobutylphenyl)-N-(3-methylpyridin-2-yl)propanamide]	interaction with carprofen in multiple inhibition experiments (rat brain FAAH; 0.5 μM [3H]AEA): mutually exclusive manner; IC50 (mouse brain FAAH [2]; read-out: IC50): 7 µM; IC50 (mouse brain FAAH [2]; read-out: pI50 (converted)): 6.92 µM
